In the supplement of paper PMC3937590:

Experiments:
Assay in all cases: -log10 GI50 (growth inhibition 50%) (-log10(M)); higher = more potent growth inhibition
BT474 = system: BT474
Procedure, shortened: (§1)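 The reported figure is the negative logarithm of GI50, defined as the molar concentration that produces the set level of growth inhibition. The logarithm is base 10. It comes from a Gompertz curve fitted by nonlinear least squares to 72-hour luminescence data from breast cancer cell lines given nine doses in 1:5 serial dilution, in triplicate, with a time-zero plate as reference. A < qualifier marks values equal to the top dose.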

HCC2185 = system: HCC2185
Procedure, shortened: as §1

MCF10A = system: MCF10A
Procedure, shortened: as §1

LY2 = system: LY2
Procedure, shortened: as §1

MDAMB175VII = system: MDAMB175VII
Procedure, shortened: as §1

HCC202 = system: HCC202
Procedure, shortened: as §1

BT20 = system: BT20
Procedure, shortened: as §1

MCF7 = system: MCF7
Procedure, shortened: as §1

SKBR3 = system: SKBR3
Procedure, shortened: as §1

HCC70 = system: HCC70
Procedure, shortened: as §1

HBL100 = system: HBL100
Procedure, shortened: as §1

Row | Structure (SMILES) | -log10 GI50 (BT474) | -log10 GI50 (HCC2185) | -log10 GI50 (MDAMB175VII) | -log10 GI50 (HCC202) | -log10 GI50 (BT20) | -log10 GI50 (MCF7) | -log10 GI50 (SKBR3) | -log10 GI50 (MCF10A) | -log10 GI50 (LY2) | -log10 GI50 (HCC70) | -log10 GI50 (HBL100)
1 | CCNCCCCNCCCCNCCCCNCCCCNC/C=C/CNCCCCNCCCCNCCCCNCCCCNCC | 6.02 | 6.6 | 6.79 | 6.28 | 6.66 | 6.33 | 5.31 | 5.9 | 5.18 | 6.55 | –
2 | CNC(=O)c1c(F)cccc1Nc1nc(Nc2cc3c(cc2OC)CCN3C(=O)CN(C)C)nc2[nH]ccc12 | 5.08 | 5.39 | 5.29 | 5.05 | 4.86 | 6 | 4.99 | 5.45 | 6.27 | 5.18 | 4.76
3 | COc1ncc(-c2ccc3nccc(-c4ccnnc4)c3c2)cc1NS(=O)(=O)c1ccc(F)cc1F | 8.36 | 8.04 | 8.73 | 9.25 | 7.8 | 8.14 | 8.41 | 8.1 | 7.94 | 8.13 | –
4 | Nc1[nH]nc2nnc(-c3c(-c4ccccc4)nn4ccccc34)cc12 | 4.69 | < 4 | 5.08 | – | 4.55 | < 4.48 | < 4 | < 4.48 | – | 4.54 | –
5 | Oc1cc(-c2nc(-c3ccccc3)[nH]c2-c2ccncc2)ccc1Cl | 4.79 | < 4.48 | 5.09 | – | 4.62 | < 4.48 | 4.66 | 4.92 | – | 4.49 | –
6 | Cn1c(=O)n(-c2ccc(C(C)(C)C#N)cc2)c2c3cc(-c4cnc5ccccc5c4)ccc3ncc21 [BEZ235] | 6.65 | 7.24 | 6.46 | – | 5.6 | < 4.48 | < 4.48 | 7.26 | 6.8 | 6.8 | –
7 | CN(C)C/C=C/C(=O)Nc1cc2c(Nc3ccc(F)c(Cl)c3)ncnc2cc1O[C@H]1CCOC1 [BIBW2992] | 8.23 | 5.86 | 8.35 | – | 5.56 | – | 7.88 | 7.49 | 5.65 | 6.33 | –
8 | COc1cc(Nc2c(C#N)cnc3cc(OCCCN4CCN(C)CC4)c(OC)cc23)c(Cl)cc1Cl [Bosutinib] | 5.71 | 5.3 | 6.07 | – | 5.89 | 5.59 | 5.41 | 5.85 | 5.66 | 6.03 | –
9 | C#Cc1cccc(Nc2ncnc3cc(OCCOC)c(OCCOC)cc23)c1 [Erlotinib] | 4.98 | 4.71 | 5.52 | 5.57 | 5.7 | < 4.18 | 4.8 | 5.97 | < 4.18 | 5.76 | < 4.18
10 | COc1cc([C@@H]2c3cc4c(cc3[C@@H](O[C@@H]3O[C@@H]5CO[C@@H](C)O[C@H]5[C@H](O)[C@H]3O)[C@H]3COC(=O)[C@H]23)OCO4)cc(OC)c1O [Etoposide] | 4.63 | 5.11 | 4.19 | 6.03 | 5.48 | 5.13 | 5.92 | 5.43 | < 3.48 | 4.89 | 5.67
11 | CO[C@H]1C[C@@H]2CC[C@@H](C)[C@@](O)(O2)C(=O)C(=O)N2CCCC[C@H]2C(=O)O[C@H]([C@H](C)C[C@@H]2CC[C@@H](OCCO)[C@H](OC)C2)CC(=O)[C@H](C)/C=C(\C)[C@@H](O)[C@@H](OC)C(=O)[C@H](C)C[C@H](C)/C=C/C=C/C=C/1C [Everolimus] | 7.52 | 7.93 | 5.1 | – | – | 6.46 | 6.84 | 6.08 | 7.52 | 6.96 | –
12 | O=C1c2ccccc2-[n+]2ccc3c([nH]c4ccccc43)c21 [Fascaplysin] | 6.73 | 6.9 | 6.68 | 7.37 | 6.51 | 6.72 | 6.65 | 6.43 | 8.1 | 6.9 | 6.26
13 | O=c1[nH]c(=O)n([C@H]2C[C@H](O)[C@@H](CO)O2)cc1F [Floxuridine] | 3.37 | 3.2 | 4.69 | – | 3.49 | 3.77 | 3.66 | 4.86 | 5.63 | 3.67 | –
14 | CC(C(C)N1CC(=O)NC(=O)C1)N1CC(=O)NC(=O)C1 (stereo not given) [ICRF-193] | < 4.3 | 5.71 | < 4.3 | – | < 4.3 | < 4.48 | 5.22 | 7.07 | 5.97 | < 4.3 | –
15 | O=C(c1ccc(Nc2nccc(-c3cc4ccccc4s3)n2)cc1)N1CCC(N2CCCC2)CC1 [IKK 16] | 5.27 | 5.13 | – | 5.1 | 5.42 | – | 5.53 | 5.56 | 5.26 | 5.54 | –
16 | CCCCCN(C)CCC(O)(P(=O)(O)O)P(=O)(O)O [Ibandronate sodium] | 3.98 | 4.92 | 4.47 | – | 4.69 | 4.31 | 4.05 | 3.39 | 3.9 | 4.2 | –
17 | C/C(=C\c1csc(C)n1)[C@@H]1C[C@@H]2O[C@]2(C)CCC[C@H](C)[C@H](O)[C@@H](C)C(=O)C(C)(C)[C@@H](O)CC(=O)N1 [Ixabepilone] | 8.42 | 8.32 | 7.03 | 6.37 | 8.45 | 9.44 | 7.99 | 8.1 | 8.22 | 8.85 | –
18 | C[C@]12O[C@H](C[C@]1(O)CO)n1c3ccccc3c3c4c(c5c6ccccc6n2c5c31)CNC4=O [Lestaurtinib] | 6.61 | 5.52 | 6.09 | – | 5.53 | 5.84 | 6 | 6.26 | 6.6 | 6.71 | –
19 | NS(=O)(=O)OC[C@@H]1C[C@@H](n2ccc3c(N[C@H]4CCc5ccccc54)ncnc32)C[C@@H]1O [MLN4924] | 6.24 | 5.62 | 6.64 | – | 5.7 | 7.16 | 6.82 | 6.31 | 7 | 5.47 | –
20 | O=C(/C=C/C#Cc1cccc(NS(=O)(=O)c2ccccc2)c1)NO [Oxamflatin] | 6.57 | 6.47 | 5.41 | – | 5.42 | 5.74 | 5.95 | 6.14 | 5.89 | 6.36 | –
21 | CC(C)[C@H](CO)Nc1nc(Nc2cccc(Cl)c2)c2ncn(C(C)C)c2n1 [Purvalanol A] | < 3.78 | 4.43 | 4.12 | 4.02 | 4.57 | 4.29 | 4.19 | 4.29 | – | < 3.78 | 4.6
22 | O=S(=O)(CC1CS1)c1ccc(Oc2ccccc2)cc1 (stereo not given) [SB-3CT] | 4.99 | 4.33 | < 4 | – | 4.21 | < 4 | < 4 | 4.05 | < 4 | < 3.78 | –
23 | CO[C@H]1C[C@@H]2CC[C@@H](C)[C@@](O)(O2)C(=O)C(=O)N2CCCC[C@H]2C(=O)O[C@H]([C@H](C)C[C@@H]2CC[C@@H](OC(=O)C(C)(CO)CO)[C@H](OC)C2)CC(=O)[C@H](C)/C=C(\C)[C@@H](O)[C@@H](OC)C(=O)[C@H](C)C[C@H](C)/C=C/C=C/C=C/1C [Temsirolimus] | 7.57 | 8.19 | 4.66 | – | 6.18 | 5.8 | 7.27 | 6.38 | 6.85 | 6.49 | –
24 | Cc1cc(Nc2cc(N3CCN(C)CC3)nc(Sc3ccc(NC(=O)C4CC4)cc3)n2)n[nH]1 [VX-680] | 4.84 | 6.48 | 4.72 | – | 5.34 | 5.08 | < 4.48 | 6.04 | 5.21 | 5.6 | –
25 | CCCC(CCC)C(=O)O [Valproic acid] | 3.03 | 2.88 | 2.96 | – | 2.44 | 2.64 | 3.04 | 2.97 | 2.96 | 2.99 | –
26 | Cc1cc(C(=O)N2CCN(c3cccc(Cl)c3)CC2)n(-c2ccccc2)n1 [XRP44X] | 4.61 | 6.31 | 5.44 | – | 5.29 | 6.4 | – | 6.55 | 6.08 | 5.97 | –

Continued, in another order:

Row | -log10 GI50 (BT474) | -log10 GI50 (HCC2185) | -log10 GI50 (MDAMB175VII) | -log10 GI50 (HCC202) | -log10 GI50 (BT20) | -log10 GI50 (MCF7) | -log10 GI50 (SKBR3) | Structure (SMILES) | -log10 GI50 (MCF10A) | -log10 GI50 (LY2) | -log10 GI50 (HCC70) | -log10 GI50 (HBL100)
27 | 4.29 | 5.96 | 5.26 | – | 5.33 | < 4.48 | 4.76 | COc1cc2c(Nc3ccc(NC(=O)c4ccccc4)cc3)ncnc2cc1OCCCN1CCOCC1 | < 4.48 | – | 5.85 | –
28 | < 4.18 | < 4.18 | < 4.18 | – | < 4.48 | < 4.48 | < 4.48 | O=C(O)c1ccc(-c2c[nH]c3ncc(-c4ccccc4)cc23)cc1C1CCCC1 | 5.55 | 5.15 | < 4.18 | –
29 | 4.3 | 4.3 | 3.96 | 4.41 | 4.05 | 4.3 | 3.96 | O=c1cc(-c2ccccc2)oc2cc(O)c(O)c(O)c12 [Baicalein] | 4.71 | 4.19 | 4.31 | –
30 | 8.24 | 8.35 | 8.3 | 8.14 | 7.33 | 7.75 | 7.88 | CC(C)C[C@H](NC(=O)[C@H](Cc1ccccc1)NC(=O)c1cnccn1)B(O)O [Bortezomib] | 6.64 | 6.46 | 8.6 | 7.35
31 | < 4.18 | < 4.48 | < 4.48 | – | < 4.48 | < 4.48 | < 4.48 | CSCC[C@H](NC(=O)[C@H](Cc1ccccc1)NC[C@@H](NC[C@@H](N)CS)C(C)C)C(=O)O [FTase inhibitor I] | < 4.48 | < 4.48 | < 4.18 | –
32 | < 4.18 | 5.62 | < 4.18 | – | 5.18 | 4.67 | 4.33 | Cc1cncc2cccc(S(=O)(=O)N3CCCN(C(=O)CN)C[C@@H]3C)c12 [Glycyl H1152] | 5.28 | 6.28 | 6.04 | –
33 | 4.52 | 4.82 | 5.01 | 5.81 | 4.89 | 4.82 | 4.63 | Cc1ccc(NC(=O)c2ccc(CN3CCN(C)CC3)cc2)cc1Nc1nccc(-c2cccnc2)n1 [Imatinib] | 4.36 | 4.65 | 4.77 | 4.62
34 | 7.29 | 7.53 | 5.84 | 8.12 | 7.77 | 7.42 | 7.49 | Cc1ccc(C(=O)N(CCCN)[C@@H](c2nc3cc(Cl)ccc3c(=O)n2Cc2ccccc2)C(C)C)cc1 [Ispinesib] | 7.4 | 6.06 | 7.34 | 7.52
35 | 6.75 | 6.66 | 6.66 | – | 6.37 | 6.47 | 6.58 | CC(C)C[C@@H](C=O)NC(=O)[C@H](CC(C)C)NC(=O)[C@H](CC(C)C)NC(=O)OCc1ccccc1 [MG-132] | 7.21 | 6.49 | 7.19 | –
36 | 5.2 | 5.11 | 5.14 | – | 5.43 | 5.23 | 4.96 | CC[C@H](CO)Nc1nc(NCc2ccccc2O)c2ncn(C(C)C)c2n1 [Olomoucine II] | 5.51 | 5.46 | 5.47 | –
37 | < 2.53 | < 2.53 | 8.1 | 5.11 | < 2.53 | < 2.53 | 5.02 | Nc1nc2[nH]cc(CCc3ccc(C(=O)N[C@@H](CCC(=O)O)C(=O)O)cc3)c2c(=O)[nH]1 [Pemetrexed] | < 2.53 | 6.33 | < 2.53 | –
38 | < 3.88 | 4.33 | < 3.88 | – | < 3.88 | < 3.88 | < 3.88 | N#Cc1c(-c2ccccc2)cc(-c2cc(Br)ccc2O)[nH]c1=O [TCS PIM-11] | 4.57 | < 3.88 | 4.47 | –
39 | 5.01 | 4.79 | 5.3 | 6.4 | 4.68 | 5.18 | 5.21 | CC(/C=C/C(=O)NO)=C\[C@@H](C)C(=O)c1ccc(N(C)C)cc1 [Trichostatin A] | 4.82 | 4.99 | 4.84 | –
